Results on two substances are retold here after patent US20020120098A1, “Enhanced stimulation of erythropoiesis” (priority 1996, published 2002).

One assay relates to cord blood LDMNC. Description: Erythroid differentiation of cord blood LDMNC in liquid culture. The assay is classed as cell-based, human. The following applies: 20 days. As for the experimental part: The ability of purified adult hemoglobin to stimulate erythroid progenitor differentiation has also been studied using a liquid culture system containing Epo. In this liquid culture system hemin is known to accelerate erythroid differentiation of progenitors obtained from normal adult peripheral blood, and to selectively increase fetal hemoglobin production in these cells. Primary low density mononuclear cells (LDMNC) isolated from cord blood were tested in this culture system. […] The addition of HAo (7.8-15.6 μM) to the cultures results in a further increase in glycophorin A/CD71 co-expression (80% vs. 53% in the Epo only control) and benzidine staining (82% vs. 43% in the Epo only control) after 20 days in culture.
The effect of HAo on erythroid differentiation was tested on cord blood LDMNC. […] 1.0 mg/ml HAo (15.6 μM) was added to Epo-stimulated cultures and the cultured cells were analyzed by flow cytometry (Epics Elite, Coulter) after 20 days for the co-expression of the red cell-specific marker, glycophorin A, and the transferrin receptor, CD71. […] Cultured cells were stained with anti-CD71 (abscissa) and anti-glycophorin A (ordinate) antibodies and the number of single- or double-stained cells (z-axis) analyzed. […] The percentage of glycophorin A^+/CD71^+ cells was determined from analysis of at least 6,500 cells per sample.

For a further assay, the system named is anemic rats. As to the kind of experiment: Stimulation of erythropoiesis in iron-deficient anemic rats. The format is in vivo, Sprague Dawley rats. Here is the method:
HEMOLINK™ was evaluated for the stimulation of erythropoiesis in anemic rats. Male Sprague Dawley rats were made anemic on an iron deficient diet over a 4 week period. Six of the anemic rats received two infusions via tail vein injection one week apart (dose I and dose II) of 10% of total blood volume of 9.8 g/dL HEMOLINK™. Nine anemic rats received an equivalent amount of parenteral iron (INFJFER™, Sabex) per kg body weight for comparison. Both solutions contained 342.9 mg/L iron. The iron-deficient anemia of the HEMOLINK™ group was characterized by a pretreatment serum iron level of […] (n=1), a reticulocyte count of 0.39±0.08×10^12/L, a red blood cell count of 1.85±0.35×10^12/L, a 6.5±1.26% hematocrit and a total blood hemoglobin of 30.5±4.38 g/L.
Statistical comparisons in FIG. 14 are based on one way analyses of variance, followed by Bonefoni comparison post-hoc tests. The effect of HEMOLINK™ infusion on reticulocyte count, red blood cell count, total hemoglobin and hematocrit in anemic male rats was compared to iron infusion (INFUFER™; an iron-containing pharmaceutical composition) and to pretreatment levels. Significant differences are indicated by *p<0.05 compared with INFUFER™ and **p<0.01 compared with pretreatment anemic rats.

Setting [1] is: anemic male rats, two i.v. infusions one week apart.

“HAo: adult human hemoglobin obtained from red blood cells and purified by displacement chromatography; uncross linked product”: in the assay on cord blood LDMNC (HAo 1.0 mg/ml (15.6 μM; b99: 7.8-15.6 μM), Epo-stimulated, untreated 53%), the “percentage of cells co-expressing glycophorin A and CD71” value stood at 80%. Moreover, the benzidine staining in the assay on cord blood LDMNC (HAo 7.8-15.6 μM, 2 U/ml Epo, Epo only control 43%) is recorded as 82%.
“HEMOLINK™: chemically crosslinked hemoglobin prepared by treating human hemoglobin with a polyaldehyde (O-raffinose)”: the “erythropoietic response of anemic female rats” value in the assay on anemic rats (anemic female rats) was “not significantly different from INFUFER™”. In the assay on anemic rats (anemic female rats, two doses), the “serum iron level at study termination” value was 27.70 ± 9.88 mg/dL. In addition, in the assay with anemic rats (setting [1]), the increase in hematocrit result is “significant increase”, the “increase in number of red blood cells” value is listed as “significant increase”, the “increase in number of reticulocytes” value was “significant increase” and the “increase in total hemoglobin concentration” value is listed as “significant increase”. In the assay on anemic rats (male rats, two infusions), the “serum iron level at study termination” value was 10.0 ± 1.95 mg/dL.
